Here are results for two substances from US8188049B2, “Peptides having activities of epidermal growth factor and its uses” (Caregen Co., Ltd., priority 2006, dated 2012).

The test system of one data set is NIH-3T3 cell. Briefly: Stability of tridecapeptide: residual activity by MTT assay after storage at 37° C. It counts as physicochemical. As to conditions: 50 mM Tris-HCl pH 8.0, 37° C, days 0-100; peptide 10 μg/ml, EGF 1 μg/ml; MTT on NIH-3T3. As for the experimental part: To evaluate stability of the synthesized and purified tridecapeptide of Example 1, the tridecapeptide was dissolved in 50 mM Tris-HCl (pH 8.0) to a concentration of 10 μg/ml. The recombinant EGF protein (Sigma-Aldrich) produced in E. coli was prepared as a control in the same buffer to a concentration of 1 μg/ml. The prepared solutions were introduced into glass vials and kept to stand at 37° C. Afterwards, the solutions were taken on days 0, 1, 10, 25, 50, 75 and 100 and subjected to MTT assay (Scudiero, D. A., et al. Cancer Res. 48:4827-4833 (1988)) using NIH-3T3 cell (Korean Cell Line Bank) to determine residual activities of the peptide and EGF (FIG. 2). The results were given as relative values to the activity (100%) of sample taken on day 0.
(Tetrazolium assays rely on reduction of a dye to a coloured formazan, in cell work by metabolically active cells.)

The test system of a further data set is NIH3T3 cells. The data set can be described thus: Cell motility after scratching the culture dish. The data set is classed as cell-based. As to conditions: NIH3T3, 1 μg/ml, 1 and 3 day treatment. As for the experimental part:
We analyzed cell motility to further verify cell proliferation potency. NIH3T3 cells were plated on 60 mm-culture dishes and cultured to a suitable fluency. The bottom surface of culture dishes was scratched using pipette and incubated with 1 μg/ml of the present peptides, followed by observing cell motility. In FIG. 6, panels A and B show cell samples non-treated with peptides and panels C and D, cell samples treated with 1 μg/ml peptides. Images of A and C were taken after 1 day-treatment, and those of B and D after 3 day-treatment.

A further data set deals with HaCaT keratinocytes. The data set can be described thus: SRB colorimetric assay, growth of HaCaT keratinocytes. It counts as cell-based, human. As to conditions: 72 hr; for cell growth / proliferation of keratinocytes (absorbance at 590 nm): 10 ng/ml or 1,000 ng/ml, serum-free. The protocol: (§1) To analyze effects of peptides of this invention on proliferation of keratinocytes, SRB (Sulforhodamine B) colorimetric assay was carried out using HaCaT kerationcyte according to Rizzino et al method (Rizzino, et al. Cancer Res., 48:4266 (1988)). HaCaT ketatinocytes (The Korean Cell Line Bank) were cultured in 250 ml-flasks containing EMEM (Eagle's minimal essential media, Gibco, U.S.A.) supplemented with […] (fetal bovine serum). HaCaT ketatinocytes cultured were treated with 0.25% trypsin solution to detach cells from the bottom of culture flasks and centrifuged to collect cell pellets. Cells were resuspended in EMEM not containing FBS, its aliquot (4×10^3) cells was added to each well of 96-well plates and cultured under 7% CO2 for 24 hr at 37° C. After 24-hr culture, the medium was changed with a fresh medium not containing serum and cells were incubated with human EGF or the tri-decapeptide (10 ng/ml or 1,000 ng/ml) dissolved in 10% DMSO for 72 hr under the same conditions as described above. After removing supernatants, cells were washed once using PBS (phosphate buffered saline) and incubated with SRB solution (Sigma-Aldrich). Cells were washed with PBS and observed under a microscope to examine cell viability (FIG. 3). In addition, absorbance at 590 nm was measured to analyze cell proliferation (FIG. 4). Cell adherency to culture dishes was tested using non-treated culture dishes and peptide-pretreated culture dishes. Human keratinocytes were plated on the culture dishes and then incubated for 24 hr, followed by observation under a microscope.
On the technique in general: In SRB staining, fixed cells bind dye roughly in proportion to their protein.

The test system of the next data set is Human keratinocytes. The data set can be described thus: Cell adherency to peptide-pretreated culture dishes. The data set is classed as cell-based. As to conditions: 24 hr. As for the experimental part: as §1, with “Cell adherency to culture dishes was tested using non-treated culture dishes and peptide-pretreated culture dishes. Human keratinocytes were plated on the culture dishes and then incubated for 24 hr, followed by observation under a microscope.” left out

The subject of another data set is hyaluronic acid. The data set can be described thus: Hyaluronic acid level by ELISA. It counts as cell-based, human. Conditions: HaCat, 5 μmole, 72 hr. As for the experimental part: Furthermore, HaCat cell lines were incubated for 72 hr with 5 μmole of the present tridecapeptides and then the level of hyaluronic acid, a marker indicating the improvement in skin wrinkle, was measured using Hyaluronic acid ELISA kit (Echelon Biosciences Inc, USA) (FIG. 8).
For orientation: In an ELISA, binding on a coated surface is turned into a signal by an enzyme label.

For another data set, the system named is EGF. The data set can be described thus: Autocrine effect: EGF level in culture by ELISA. The data set is classed as cell-based, human. Conditions: HaCat, 1 μg/ml, 6 days. The protocol: For examining autocrine effects, HaCat cell lines were incubated for 6 days with the tridecapeptides of this invention (1 μg/ml) and then the level of EGF in culture was measured using the ELISA kit (R&D, USA).

[1] abbreviates: listed as peptide of this invention.

With “recombinant EGF protein: recombinant EGF protein (Sigma-Aldrich) produced in E. coli, used as control [reference compound]”, the “residual activity relative to day 0 (100%)” value in the data set with NIH-3T3 cell is “sharply decreased”.
In the case of “NH2-Cys-Met-Tyr-Ile-Glu-Gly-Gly-Gly-Gly-Arg-Gly-Asp-Gly-OH (H-CMYIEGGGGRGDG-OH) [tridecapeptide]”, the cell motility entry with NIH3T3 cells is reported as “promote cell motility”. The “cell growth / proliferation of keratinocytes (absorbance at 590 nm)” value is “promotes the growth of human keratinocytes in a dose-dependent manner” with HaCaT keratinocytes and “significantly high potency” with HaCaT keratinocytes (setting [1]). The “cell viability (microscope)” value in the data set with HaCaT keratinocytes (SRB staining) is recorded as “significantly high potency”. Moreover, the “number of cells adhered to culture dishes vs non-treated culture dishes” value in the data set with Human keratinocytes (setting [1]) is reported as “significantly high potency”; with Human keratinocytes (listed as peptides of this invention), “about three-fold greater”. Moreover, the “residual activity relative to day 0 (100%)” value in the data set with NIH-3T3 cell is “not to be decreased”. Further, the “level of hyaluronic acid” value in the data set on hyaluronic acid was “significantly increased”. The “level of EGF in culture (autocrine effect)” value in the data set on EGF is “significantly high autocrine effects on EGF”; in the data set on EGF (listed as present peptide), “considerable increase”.
